Experimental data from patent US20100093726A1 (Giuseppe CAMPIANI, priority 2007, published 2010).

Key:
[1] = Cytotoxicity on normal human lymphocytes; type: cell-based; conditions: normal human lymphocytes PHA-stimulated; read-out: TC50 (μM) Normal human lymphocytes
P. Chabaudi AS = assay: In vivo activity against P. chabaudi; conditions: per os; for P. Chabaudi AS (% inhibition at 50 mg/Kg): single dose of 50 mg/Kg
[2] = Cytotoxicity on NSO cells; type: cell-based; conditions: mouse, NSO cells (plasmocytoma murine cell line); read-out: TC50 (μM) NSO cells
[3] = Cytotoxicity on Daudi cells; type: cell-based; conditions: human, Daudi cells (human lymphoblastoid cell line); read-out: TC50 (μM) Daudi cells
P. falciparum 3D7 = assay: In vitro antiplasmodial activity, P. falciparum 3D7 (CQ-S clone); type: cell-based; conditions: Plasmodium falciparum, 3D7, read-out: IC50 (nM) 3D7
Method: (§1) Some of the synthesized compounds were tested in vitro against two different strains of P. falciparum, namely 3D7, NF54 and D10 (CQ-S strain) and K1 and W2 (CQ-R strain).

P. falciparum K1 = assay: microbe, parasite or virus in culture; type: cell-based; conditions: Plasmodium falciparum, K1, read-out: IC50 (nM) K1
Method: as §1

[4] = tested on: β-hematin formation (hemin); assay: BHIA (β-hematin inhibitory activity) assay; type: biochemical; conditions: hemin in dimethyl sulfoxide-acetate buffer at pH 5.0, 37° C., 18 h
[5] = tested on: KB cell (human carcinoma of the nasopharynx cell line); assay: Cytotoxicity on KB cells; type: cell-based
P. falciparum D10 = assay: In vitro antiplasmodial activity, P. falciparum D10 (CQ-S clone); type: cell-based; conditions: Plasmodium falciparum, D10, read-out: IC50 (nM) D10
Method: as §1

P. falciparum W2 = assay: microbe, parasite or virus in culture; type: cell-based; conditions: Plasmodium falciparum, W2, read-out: IC50 (nM) W2
Method: as §1

P. falciparum NF54 = assay: In vitro antiplasmodial activity, P. falciparum NF54 (CQ-S clone); type: cell-based; conditions: Plasmodium falciparum, NF54, read-out: IC50 (nM) NF54
Method: as §1

[6] = tested on: Candida krusei ATCC ® 6258; assay: Antifungal susceptibility (CLSI broth dilution), Candida krusei; type: cell-based; conditions: CLSI protocol, quality control strain
Excerpt: (§2) (1) National Committee for Clinical Laboratory Standards. (2002). Reference method for broth dilution antifungal susceptibility testing of yeasts—Second Edition: Approved Standard, M27-A2. NCCLS, Wayne, Pa.; and
(§3) (2) National Committee for Clinical Laboratory Standards. Reference method for broth dilution antifungal susceptibility testing of filamentous fungi: Approved Standard, M38-A. 2002; NCCLS, Wayne, Pa.

Candida glabrata MGMI 2 = assay: Antifungal susceptibility (CLSI broth dilution), Candida glabrata; type: cell-based; conditions: CLSI protocol, clinical isolate
Excerpt: as §2, §3

[7] = tested on: Cryptococcus neoformans MGMI 3; assay: Antifungal susceptibility (CLSI broth dilution), Cryptococcus neoformans; type: cell-based; conditions: CLSI protocol, clinical isolate
Excerpt: as §2, §3

[8] = tested on: Aspergillus fumigatus MGMI 5; assay: Antifungal susceptibility (CLSI broth dilution), Aspergillus fumigatus MGMI 5 (ITRA resistant); type: cell-based; conditions: for antifungal susceptibility value (MIC), Aspergillus fumigatus MGMI 5: CLSI protocol, clinical isolate, itraconazole resistant
Excerpt: as §2, §3

Candida albicans MGMI 1 = assay: Antifungal susceptibility (CLSI broth dilution), Candida albicans; type: cell-based; conditions: CLSI protocol, clinical isolate
Excerpt: as §2, §3

[9] = tested on: yeast and filamentous fungi; assay: Antifungal activity, overall statement; type: cell-based; conditions: yeast and filamentous fungi of Table 4
[10] = tested on: Aspergillus fumigatus MGMI 4; assay: Antifungal susceptibility (CLSI broth dilution), Aspergillus fumigatus MGMI 4; type: cell-based; conditions: CLSI protocol, clinical isolate
Excerpt: as §2, §3

[11] = tested on: Candida parapsilosis ATCC ® 22019; assay: Antifungal susceptibility (CLSI broth dilution), Candida parapsilosis; type: cell-based; conditions: CLSI protocol, quality control strain
Excerpt: as §2, §3

[12] = tested on: Aspergillus flavus ATCC ® 204304; assay: Antifungal susceptibility (CLSI broth dilution), Aspergillus flavus; type: cell-based; conditions: CLSI protocol, reference strain
Excerpt: as §2, §3

P. Berghei ANKA = assay: In vivo activity against P. berghei; conditions: doses up to 100 mg/Kg
Method: The experiment was performed at a single dose of 50 mg/Kg. ED50 was determined for 9a in P. berghei ANKA. All compounds were adminstered per os.

SMILES | CC50 [1] [µM] | P. Chabaudi AS (% inhibition at 50 mg/Kg) (P. Chabaudi AS) [%] | CC50 [2] [µM] | CC50 [3] [µM] | IC50 (P. falciparum 3D7) [nM] | IC50 (P. falciparum K1) [nM] | TC50 (μM) KB cell [5] [µM] | IC50 (P. falciparum D10) [nM] | IC50 (P. falciparum W2) [nM] | IC50 (P. falciparum NF54) [nM] | antifungal susceptibility value (MIC), Candida krusei ATCC 6258 [6] | antifungal susceptibility value (MIC), Candida glabrata MGMI 2 (Candida glabrata MGMI 2) | antifungal susceptibility value (MIC), Cryptococcus neoformans MGMI 3 [7] | antifungal susceptibility value (MIC), Aspergillus fumigatus MGMI 5 [8] | antifungal susceptibility value (MIC), Candida albicans MGMI 1 (Candida albicans MGMI 1) | antifungal susceptibility value (MIC), Aspergillus fumigatus MGMI 4 [10] | antifungal susceptibility value (MIC), Candida parapsilosis ATCC 22019 [11] | antifungal susceptibility value (MIC), Aspergillus flavus ATCC 204304 [12] | further results
Clc1ccc(C(Nc2ccnc3cc(Cl)ccc23)(c2ccccc2)c2ccc(CN3CCCC3)cc2)cc1 (racemic) [Compound 15a] | 18.6 | 99.9 | 14.9 | 16.7 | 3 | 22 | – | – | – | – | – | – | – | – | – | – | – | – | –
CCN(CC)Cc1cc(Nc2ccnc3cc(Cl)ccc23)ccc1O [Amodiaquine] | – | – | – | – | – | – | – | – | – | – | – | – | – | – | – | – | – | – | β-hematin inhibitory activity IC50 [4]: 0.79 ± 0.01 Molar equivalents of compound relative to hemin
CCN(CC)CCCC(C)Nc1ccnc2cc(Cl)ccc12 (centres unmarked) [CQ, chloroquine, reference compound] | – | – | – | – | 10 | 260 | 207.0 | 22 | 280 | 7 | – | – | – | – | – | – | – | – | P. Chabaudi AS (% inhibition) (P. Chabaudi AS; 10 mg/Kg): 100 (10 mg/Kg) %; β-hematin inhibitory activity IC50 [4]: 0.91 ± 0.23 Molar equivalents of compound relative to hemin
Clc1cccc(C(Nc2ccnc3cc(Cl)ccc23)c2ccc(CN3CCOCC3)cc2)c1 (racemic) [Compound 9b] | 40.8 | – | 44.7 | 43.9 | – | 259 | – | 142 | 220 | 155 | – | – | – | – | – | – | – | – | –
Clc1ccc(C(Nc2ccnc3cc(Cl)ccc23)c2ccc(CN3CCCC3)cc2)cc1 (racemic) [Compound 9e] | 17.3 | 99.5 | 8.65 | 8.65 | 3.7 | 9 | 19.61 | 45.8 | 72.1 | 15 | >32 | >32 | 16 | >32 | >32 | >32 | 16 | >32 | anti-fungal activity (in words) [9]: lack of anti-fungal activity
FC(F)(F)c1ccc2c(NC(c3cccc(Cl)c3)c3ccc(CN4CCOCC4)c(Cl)c3)ccnc2c1 (racemic) [Compound 9j] | – | – | – | – | – | 375 | – | – | – | 163 | – | – | – | – | – | – | – | – | –
CCC(C)n1ncn(-c2ccc(N3CCN(c4ccc(OCC5COC(Cn6cncn6)(c6ccc(Cl)cc6Cl)O5)cc4)CC3)cc2)c1=O (centres unmarked) [ITRA, itraconazole, reference compound] | – | – | – | – | – | – | – | – | – | – | 0.25 µg/mL | 32 µg/mL | 0.25 µg/mL | > 32 µg/mL | 0.25 µg/mL | 0.06 µg/mL | 0.125 µg/mL | 0.06 µg/mL | MIC ([8]; Aspergillus fumigatus, MGMI5, strain description in text, itraconazole resistant isolate): > 16 µg/mL
Clc1ccccc1C(c1ccccc1)(c1ccccc1)n1ccnc1 [CLT, clotrimazole, reference compound] | – | 6.0 | – | – | – | – | 88.1 | – | – | – | – | – | 2 µg/mL | 4 µg/mL | 0.03 µg/mL | 4 µg/mL | 2 µg/mL | 4 µg/mL | activity against P. berghei in vivo (P. Berghei ANKA): not active
FC(F)(F)c1ccc2c(NC(c3ccc(Cl)cc3)c3ccc(CN4CCCC4)cc3)ccnc2c1 (racemic) [Compound 9k] | 24.2 | 99.6 | 12.1 | 14.1 | 0.2 | 30 | 5.49 | 61.5 | 90.5 | 20 | >32 | >32 | 16 | >32 | 16 | >32 | 16 | >32 | anti-fungal activity (in words) [9]: lack of anti-fungal activity
